Activity calls are given as the source filed them. The calls are words filed in the database; no cut-off is given here.
What was measured:
Assay type in all cases: functional
MDA-MB-468 = assay: Cytotoxicity against human MDA-MB-468 cells assessed as growth inhibition at 10 uM after 48 hrs by SRB assay relative to control; details: MDA-MB-468, 48 h, read-out: GI
T47D = assay: Cytotoxicity against human T47D cells assessed as growth inhibition at 10 uM after 48 hrs by SRB assay relative to control; details: read-out: GI
MDA-MB-231 = assay: Cytotoxicity against human MDA-MB-231 cells assessed as growth inhibition at 10 uM after 48 hrs by SRB assay relative to control; details: MDA-MB-231, 48 h, read-out: GI
MCF7 = assay: Cytotoxicity against human MCF7 cells assessed as growth inhibition at 10 uM after 48 hrs by SRB assay relative to control; details: MCF7, 48 h, read-out: GI
DU-145 = assay: Cytotoxicity against human DU145 cells assessed as growth inhibition at 10 uM after 48 hrs by SRB assay relative to control; details: DU-145, 48 h, read-out: GI
PC-3 = assay: Cytotoxicity against human PC3 cells assessed as growth inhibition at 10 uM after 48 hrs by SRB assay relative to control; details: PC-3, 48 h, read-out: GI
SN12C = assay: Cytotoxicity against human SN12C cells assessed as growth inhibition at 10 uM after 48 hrs by SRB assay relative to control; details: read-out: GI
CAKI-1 = assay: Cytotoxicity against human Caki1 cells assessed as growth inhibition at 10 uM after 48 hrs by SRB assay relative to control; details: CAKI-1, 48 h, read-out: GI
ACHN = assay: Cytotoxicity against human ACHN cells assessed as growth inhibition at 10 uM after 48 hrs by SRB assay relative to control; details: read-out: GI
SK-OV-3 = assay: Cytotoxicity against human SKOV3 cells assessed as growth inhibition at 10 uM after 48 hrs by SRB assay relative to control; details: SK-OV-3, 48 h, read-out: GI
[1] = Cytotoxicity against human NCI-ADR-RES cells assessed as growth inhibition at 10 uM after 48 hrs by SRB assay relative to control; details: read-out: GI
OVCAR-8 = assay: Cytotoxicity against human OVCAR8 cells assessed as growth inhibition at 10 uM after 48 hrs by SRB assay relative to control; details: OVCAR-8, 48 h, read-out: GI
OVCAR-5 = assay: Cytotoxicity against human OVCAR5 cells assessed as growth inhibition at 10 uM after 48 hrs by SRB assay relative to control; details: OVCAR-5, 48 h, read-out: GI
IGROV-1 = assay: Cytotoxicity against human IGROV1 cells assessed as growth inhibition at 10 uM after 48 hrs by SRB assay relative to control; details: IGROV-1, 48 h, read-out: GI
OVCAR-3 = assay: Cytotoxicity against human OVCAR3 cells assessed as growth inhibition at 10 uM after 48 hrs by SRB assay relative to control; details: OVCAR-3, 48 h, read-out: GI
UACC-62 = assay: Cytotoxicity against human UACC62 cells assessed as growth inhibition at 10 uM after 48 hrs by SRB assay relative to control; details: UACC-62, 48 h, read-out: GI
UACC-257 = assay: Cytotoxicity against human UACC257 cells assessed as growth inhibition at 10 uM after 48 hrs by SRB assay relative to control; details: UACC-257, 48 h, read-out: GI
SK-MEL-5 = assay: Cytotoxicity against human SK-MEL-5 cells assessed as growth inhibition at 10 uM after 48 hrs by SRB assay relative to control; details: SK-MEL-5, 48 h, read-out: GI
SK-MEL-28 = assay: Cytotoxicity against human SK-MEL-28 cells assessed as growth inhibition at 10 uM after 48 hrs by SRB assay relative to control; details: SK-MEL-28, 48 h, read-out: GI
M14 = assay: Cytotoxicity against human M14 cells assessed as growth inhibition at 10 uM after 48 hrs by SRB assay relative to control; details: M14, 48 h, read-out: GI
SK-MEL-2 = assay: Cytotoxicity against human SK-MEL-2 cells assessed as growth inhibition at 10 uM after 48 hrs by SRB assay relative to control; details: SK-MEL-2, 48 h, read-out: GI
Malme-3M = assay: Cytotoxicity against human MALME-3M cells assessed as growth inhibition at 10 uM after 48 hrs by SRB assay relative to control; details: read-out: GI
SNB-75 = assay: Cytotoxicity against human SNB75 cells assessed as growth inhibition at 10 uM after 48 hrs by SRB assay relative to control; details: SNB-75, 48 h, read-out: GI
SF-295 = assay: Cytotoxicity against human SF295 cells assessed as growth inhibition at 10 uM after 48 hrs by SRB assay relative to control; details: SF-295, 48 h, read-out: GI
SF-539 = assay: Cytotoxicity against human SF539 cells assessed as growth inhibition at 10 uM after 48 hrs by SRB assay relative to control; details: for inhibition of growth at 10 µM: SF-539, 48 h, read-out: GI
SF-268 = assay: Cytotoxicity against human SF268 cells assessed as growth inhibition at 10 uM after 48 hrs by SRB assay relative to control; details: SF-268, 48 h, read-out: GI
KM12 = assay: Cytotoxicity against human KM12 cells assessed as growth inhibition at 10 uM after 48 hrs by SRB assay relative to control; details: KM12, 48 h, read-out: GI
HCC 2998 = assay: Cytotoxicity against human HCC2998 cells assessed as growth inhibition at 10 uM after 48 hrs by SRB assay relative to control; details: for inhibition of growth at 10 µM: HCC 2998, 48 h, read-out: GI
NCI-H522 = assay: Cytotoxicity against human NCI-H522 cells assessed as growth inhibition at 10 uM after 48 hrs by SRB assay relative to control; details: NCI-H522, 48 h, read-out: GI
NCI-H23 = assay: Cytotoxicity against human NCI-H23 cells assessed as growth inhibition at 10 uM after 48 hrs by SRB assay relative to control; details: NCI-H23, 48 h, read-out: GI
NCI-H226 = assay: Cytotoxicity against human NCI-H226 cells assessed as growth inhibition at 10 uM after 48 hrs by SRB assay relative to control; details: NCI-H226, 48 h, read-out: GI
HOP-62 = assay: Cytotoxicity against human HOP62 cells assessed as growth inhibition at 10 uM after 48 hrs by SRB assay relative to control; details: HOP-62, 48 h, read-out: GI
MOLT-4 = assay: Cytotoxicity against human MOLT4 cells assessed as growth inhibition at 10 uM after 48 hrs by SRB assay relative to control; details: MOLT-4, 48 h, read-out: GI
K562 = assay: Cytotoxicity against human K562 cells assessed as growth inhibition at 10 uM after 48 hrs by SRB assay relative to control; details: K562, 48 h, read-out: GI

| SMILES | inhibition of growth at 10 µM (T47D) [%] | inhibition of growth at 10 µM (MDA-MB-231) [%] | inhibition of growth at 10 µM (MCF7) [%] | inhibition of growth at 10 µM (DU-145) [%] | inhibition of growth at 10 µM (PC-3) [%] | inhibition of growth at 10 µM (SN12C) [%] | inhibition of growth at 10 µM (CAKI-1) [%] | inhibition of growth at 10 µM (ACHN) [%] | inhibition of growth at 10 µM (SK-OV-3) [%] | inhibition of growth at 10 µM [1] [%] | inhibition of growth at 10 µM (OVCAR-5) [%] | inhibition of growth at 10 µM (IGROV-1) [%] | inhibition of growth at 10 µM (OVCAR-3) [%] | inhibition of growth at 10 µM (UACC-257) [%] | inhibition of growth at 10 µM (SK-MEL-28) [%] | inhibition of growth at 10 µM (SK-MEL-2) [%] | inhibition of growth at 10 µM (Malme-3M) [%] | inhibition of growth at 10 µM (SNB-75) [%] | inhibition of growth at 10 µM (SF-295) [%] | inhibition of growth at 10 µM (SF-268) [%] | also measured |
| --- | --- | --- | --- | --- | --- | --- | --- | --- | --- | --- | --- | --- | --- | --- | --- | --- | --- | --- | --- | --- | --- |
| O=c1oc2cc(NCCN3CCOCC3)ccc2cc1-c1nc2ccccc2[nH]1 | < 20 | < 20 | < 20 | < 20 | < 20 | < 20 | < 20 | < 20 | < 20 | < 20 | < 20 | < 20 | < 20 | < 20 | < 20 | < 20 | < 20 | 22.9 | < 20 | < 20 | inhibition of growth at 10 µM (MDA-MB-468): < 20%; inhibition of growth at 10 µM (OVCAR-8): < 20%; inhibition of growth at 10 µM (UACC-62): < 20%; inhibition of growth at 10 µM (SK-MEL-5): < 20%; inhibition of growth at 10 µM (M14): < 20%; inhibition of growth at 10 µM (SF-539): < 20%; inhibition of growth at 10 µM (KM12): < 20%; inhibition of growth at 10 µM (HCC 2998): < 20%; inhibition of growth at 10 µM (NCI-H522): < 20%; inhibition of growth at 10 µM (NCI-H23): < 20%; inhibition of growth at 10 µM (NCI-H226): < 20%; inhibition of growth at 10 µM (HOP-62): < 20%; inhibition of growth at 10 µM (MOLT-4): < 20%; inhibition of growth at 10 µM (K562): < 20% |
| CN1CCN(c2ccc3cc(-c4nc5ccccc5[nH]4)c(=O)oc3c2)CC1 | 23.1 | < 20 | 26.3 | < 20 | < 20 | < 20 | < 20 | < 20 | < 20 | < 20 | < 20 | 20.1 | < 20 | 25.3 | < 20 | < 20 | < 20 | < 20 | < 20 | < 20 | inhibition of growth at 10 µM (MDA-MB-468): 31.7%; inhibition of growth at 10 µM (OVCAR-8): < 20%; inhibition of growth at 10 µM (SK-MEL-5): < 20%; inhibition of growth at 10 µM (M14): < 20%; inhibition of growth at 10 µM (SF-539): < 20%; inhibition of growth at 10 µM (KM12): < 20%; inhibition of growth at 10 µM (HCC 2998): < 20%; inhibition of growth at 10 µM (NCI-H522): < 20%; inhibition of growth at 10 µM (NCI-H23): 25.5%; inhibition of growth at 10 µM (NCI-H226): < 20%; inhibition of growth at 10 µM (HOP-62): < 20%; inhibition of growth at 10 µM (MOLT-4): < 20%; inhibition of growth at 10 µM (K562): 56.4% |
| O=c1[nH]cc(F)c(=O)[nH]1 [FLUOROURACIL] | 56.7 | 78.1 | 11.5 | 35.5 | 58.2 | 54 | 39.4 | 39.3 | 77.5 | 47.6 | 44.3 | 51.2 | 47.4 | 33.7 | 19.5 | 95.5 | 58.2 | 65.9 | 69 | 59 | inhibition of growth at 10 µM (UACC-62): 39.7%; growth inhibition (GI) (SF-539): Active; inhibition of growth at 10 µM (KM12): 40.7%; growth inhibition (GI) (HCC 2998): Active; inhibition of growth at 10 µM (NCI-H522): 58%; inhibition of growth at 10 µM (NCI-H23): 39%; inhibition of growth at 10 µM (NCI-H226): 69.5%; inhibition of growth at 10 µM (HOP-62): 47.8%; inhibition of growth at 10 µM (MOLT-4): 43.1%; inhibition of growth at 10 µM (K562): 42.3% |

From ChEMBL document CHEMBL2396528, “Synthesis of new conjugated coumarin-benzimidazole hybrids and their anticancer activity” (2013)
